These results are taken from US9732072B2, “PRMT5 inhibitors and uses thereof” (Epizyme, Inc., priority 2012, dated 2017).

Molecules are shown by their SMILES.

The target in one assay is PRMT5/MEP50 (Homo sapiens (Human), UniProt O14744). Kind of assay: PRMT5 Biochemical Assay (PRMT5/MEP50 enzyme assay on peptide substrate, 3H-SAM Flashplate). Conditions: PRMT5/MEP50 4 nM, 3H-SAM 75 nM, peptide 40 nM. From the text: S-adenosylmethionine (SAM), S-adenosylhomocysteine (SAH), bicine, KCl, Tween20, dimethylsulfoxide (DMSO), bovine skin gelatin (BSG), and Tris(2-carboxyethyl)phosphine hydrochloride solution (TCEP) were purchased from Sigma-Aldrich at the highest level of purity possible. ^3H-SAM was purchase from American Radiolabeled Chemicals with a specific activity of 80 Ci/mmol. 384-well streptavidin Flashplates were purchased from PerkinElmer.
Sequence of PRMT5/MEP50 (O14744 other isoform, or with tags, fused parts or gaps): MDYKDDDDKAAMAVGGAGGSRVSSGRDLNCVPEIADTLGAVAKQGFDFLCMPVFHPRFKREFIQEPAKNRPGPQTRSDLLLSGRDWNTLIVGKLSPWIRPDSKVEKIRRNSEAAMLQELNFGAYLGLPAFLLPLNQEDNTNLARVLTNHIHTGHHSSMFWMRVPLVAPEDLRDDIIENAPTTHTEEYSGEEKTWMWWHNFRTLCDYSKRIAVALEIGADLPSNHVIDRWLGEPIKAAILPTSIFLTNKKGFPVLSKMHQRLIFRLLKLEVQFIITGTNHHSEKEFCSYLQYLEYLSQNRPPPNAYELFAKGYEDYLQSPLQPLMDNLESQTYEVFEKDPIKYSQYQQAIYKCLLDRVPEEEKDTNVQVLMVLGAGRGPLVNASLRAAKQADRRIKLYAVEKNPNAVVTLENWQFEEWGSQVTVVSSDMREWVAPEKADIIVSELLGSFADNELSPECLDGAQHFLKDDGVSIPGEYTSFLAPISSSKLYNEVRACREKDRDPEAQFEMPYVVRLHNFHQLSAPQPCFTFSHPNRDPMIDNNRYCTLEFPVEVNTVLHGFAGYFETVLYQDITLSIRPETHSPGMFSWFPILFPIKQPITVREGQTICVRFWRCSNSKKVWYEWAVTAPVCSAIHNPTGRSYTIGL
Sequence of PRMT5/MEP50 (Q9BQA1 other isoform, or with tags, fused parts or gaps partner): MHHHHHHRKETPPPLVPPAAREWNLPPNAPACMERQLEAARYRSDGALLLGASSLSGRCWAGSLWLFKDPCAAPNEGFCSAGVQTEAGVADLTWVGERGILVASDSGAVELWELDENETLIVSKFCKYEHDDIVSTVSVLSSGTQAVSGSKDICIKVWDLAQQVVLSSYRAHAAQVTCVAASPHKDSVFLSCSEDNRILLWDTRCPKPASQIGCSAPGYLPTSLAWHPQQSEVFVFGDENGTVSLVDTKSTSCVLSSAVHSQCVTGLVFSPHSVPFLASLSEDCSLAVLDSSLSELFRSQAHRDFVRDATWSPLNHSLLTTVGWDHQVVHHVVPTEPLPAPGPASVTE
Peptide representative of human histone H4 residues 1-15 was synthesized with a C-terminal linker-affinity tag motif and a C-terminal amide cap by 21st Century Biochemicals. The peptide was high high-performance liquid chromatography (HPLC) purified to greater than 95% purity and confirmed by liquid chromatography mass spectrometry (LC-MS). The sequence was Ac-[…][K-Biot]-amide (SEQ ID NO.:3).
Full-length human PRMT5 (NM_006109.3) transcript variant 1 clone was amplified from a fetal brain cDNA library, incorporating flanking 5′ sequence encoding a FLAG tag ([…]) (SEQ ID NO.:4) fused directly to Ala 2 of PRMT5. Full-length human MEP50 (NM_024102) clone was amplified from a human testis cDNA library incorporating a 5′ sequence encoding a 6-histidine tag (MHHHHHH) (SEQ ID NO.:5) fused directly to Arg 2 of MEP50. The amplified genes were sublconed into pENTR/D/TEV (Life Technologies) and subsequently transferred by Gateway™ attL×attR recombination to pDEST8 baculvirus expression vector (Life Technologies).
Recombinant baculovirus and Baculovirus-Infected Insect Cells (BIIC) were generated according to Bac-to-Bac kit instructions (Life Technologies) and Wasilko, 2006, respectively. Protein over-expression was accomplished by infecting exponentially growing Spodoptera frugiperda (SF9) cell culture at 1.2×10^6 cell/ml with a 5000 fold dilution of BIIC stock. Infections were carried out at 27° C. for 72 hours, harvested by centrifugation, and stored at −80° C. for purification.
Flag-PRMT5/6His-MeP50 was eluted with 300 mM Imidazole in the same buffer. The purity of recovered protein was 87%. Reference: Wasilko, D. J. and S. E. Lee: “TIPS: titerless infected-cells preservation and scale-up” Bioprocess J., 5 (2006), pp. 29-32.
General Procedure for PRMT5/MEP50 Enzyme Assays on Peptide Substrates.
The assays were all performed in a buffer consisting of 20 mM Bicine (pH=7.6), 1 mM TCEP, 0.005% BSG, and 0.002% Tween20, prepared on the day of use. Compounds in 100% DMSO (1 ul) were spotted into a polypropylene 384-well V-bottom plates (Greiner) using a Platemate Plus outfitted with a 384-channel head (Thermo Scientific). DMSO (1 ul) was added to Columns 11, 12, 23, 24, rows A-H for the maximum signal control and 1 ul of SAH, a known product and inhibitor of PRMT5/MEP50, was added to columns 11, 12, 23, 24, rows I-P for the minimum signal control. A cocktail (40 ul) containing the PRMT5/MEP50 enzyme and the peptide was added by Multidrop Combi (Thermo-Fisher). The compounds were allowed to incubate with PRMT5/MEP50 for 30 min at 25 degrees Celsius, then a cocktail (10 ul) containing ^3H-SAM was added to initiate the reaction (final volume=51 ul). The final concentrations of the components were as follows: PRMT5/MEP50 was 4 nM, ^3H-SAM was 75 nM, peptide was 40 nM, SAH in the minimum signal control wells was 100 uM, and the DMSO concentration was 1%. The assays were stopped by the addition of non-radioactive SAM (10 ul) to a final concentration of 600 uM, which dilutes the ^3H-SAM to a level where its incorporation into the peptide substrate is no longer detectable. 50 ul of the reaction in the 384-well polypropylene plate was then transferred to a 384-well Flashplate and the biotinylated peptides were allowed to bind to the streptavidin surface for at least 1 hour before being washed three times with 0.1% Tween20 in a Biotek ELx405 plate washer. […]

Assay [1] has as its system Symmetric Di-Methyl Arginine in Z-138 cells. Kind of assay: Z-138 Methylation Assay (In Cell Western for symmetric di-methyl arginine). The format is cell-based. To be noted: Homo sapiens, 96 hours incubation, read-out: ICW EC50. From the text:
[formula] Where top and bottom are the normally allowed to float, but may be fixed at 100 or 0 respectively in a 3-parameter fit. The Hill Coefficient normally allowed to float but may also be fixed at 1 in a 3-parameter fit. Y is the % inhibition and X is the compound concentration. Z-138 Methylation Assay
Z-138 suspension cells were purchased from ATCC (American Type Culture Collection, Manassas, Va.). RPMI/Glutamax medium, penicillin-streptomycin, heat inactivated fetal bovine serum, and D-PBS were purchased from Life Technologies, Grand Island, N.Y., USA. Odyssey blocking buffer, 800CW goat anti-rabbit IgG (H+L) antibody, and Licor Odyssey infrared scanner were purchased from Licor Biosciences, Lincoln, Nebr., USA. Symmetric di-methyl arginine antibody was purchased from EMD Millipore, Billerica, Mass., USA. […]
First, the ratio for each well was determined by:
Each plate included fourteen control wells of DMSO only treatment (minimum inhibition) as well as fourteen control wells for maximum inhibition treated with 3 μM of a reference compound (Background wells). The average of the ratio values for each control type was calculated and used to determine the percent inhibition for each test well in the plate. […] Percent inhibition was determined and IC50 curves were generated using triplicate wells per concentration of compound. […]

The subject of a further assay is Z-138 cell line. The assay is described as follows: Z-138 Proliferation Assay (Cell Titer Glo). The format is cell-based. To be noted: Homo sapiens, 120 h; Z-138 cells, 5 days, top concentration 20 μM. From the text:
[formula] Z-138 Proliferation Assay
Z-138 suspension cells were purchased from ATCC (American Type Culture Collection, Manassas, Va.). RPMI/Glutamax medium, penicillin-streptomycin, heat inactivated fetal bovine serum were purchased from Life Technologies, Grand Island, N.Y., USA. V-bottom polypropylene 384-well plates were purchased from Greiner Bio-One, Monroe, N.C., USA. Cell culture 384-well white opaque plates were purchased from Perkin Elmer, Waltham, Mass., USA. Cell-Titer Glo® was purchased from Promega Corporation, Madison, Wis., USA. SpectraMax M5 plate reader was purchased from Molecular Devices LLC, Sunnyvale, Calif., USA. […]
For the assessment of the effect of compounds on the proliferation of the Z-138 cell line, exponentially growing cells were plated in 384-well white opaque plates at a density of 10,000 cells/ml in a final volume of 50 μl of assay medium. […] Cell viability was measured by quantitation of ATP present in the cell cultures, adding 35 μl of Cell Titer Glo® reagent to the cell plates. Luminescence was read in the SpectraMax M5 microplate reader. The concentration of compound inhibiting cell viability by 50% was determined using a 4-parametric fit of the normalized dose response curves.

As for `Cn1cnc2ccc(-c3cccc(OC[C@H](O)CN4Cc5ccccc5C4)c3)cc21` [Compound 17, (R)-1-(isoindolin-2-yl)-3-(3-(1-methyl-1H-benzo[d]imidazol-6-yl)phenoxy)propan-2-ol], on PRMT5/MEP50, the IC50 fell in the range of 1000 to 10000 nM.

For the compound `C[C@H](Oc1cccc2cccnc12)C(=O)NC[C@H](O)CN1Cc2ccccc2C1` [Compound 1], at PRMT5/MEP50, the IC50 lay in the range of 1000 to 10000 nM.

On to `CN(C)S(=O)(=O)c1ccccc1OCC(=O)NC[C@H](O)CN1Cc2ccccc2C1` [Compound 23], for which the concentration for half-maximal inhibition (IC50) on PRMT5/MEP50 was below 100 nM.

`C[C@H](Oc1cccc2cccnc12)C(=O)NC[C@@H](O)CN1Cc2ccccc2C1` [Compound 6]: at PRMT5/MEP50, the concentration for half-maximal inhibition (IC50) is above 10000 nM.

Take `O=C(NC[C@H](O)CN1Cc2ccccc2C1)c1ccnc(NC2CCOCC2)c1` [Compound 30]: the concentration for half-maximal inhibition (IC50) on PRMT5/MEP50 is below 100 nM.

In the case of `Cn1ncc2ccc(OCC(=O)NC[C@@H](O)CN3Cc4ccccc4C3)cc21` [Compound 25], the IC50 on PRMT5/MEP50 is 10000 to 50000 nM.

On to `Cn1ncc2ccc(OCC(=O)NC[C@H](O)CN3Cc4ccccc4C3)cc21` [Compound 27], for which the IC50 at PRMT5/MEP50 fell in the range of 101 to 1000 nM.

Turning to `Cn1cnc2ccc(-c3cccc(OC[C@@H](O)CN4Cc5ccccc5C4)c3)cc21` [Compound 14], the IC50 on PRMT5/MEP50 was 10000 to 50000 nM.

For `CN(C)S(=O)(=O)c1ccccc1OCC(=O)NC[C@@H](O)CN1Cc2ccccc2C1` [Compound 21], at PRMT5/MEP50, the concentration for half-maximal inhibition (IC50) lay within 101 to 1000 nM.

Take `CN1CCOc2cccc(OCC(=O)NCC(O)CN3Cc4ccccc4C3)c21` (stereo not shown) [Compound 10, N-(2-hydroxy-3-(isoindolin-2-yl)propyl)-2-((4-methyl-3,4-dihydro-2H-benzo[b][1,4]oxazin-5-yl)oxy)acetamide]: the EC50 in assay [1] is 101 to 1000 nM; with Z-138 cell line it was above 20000 nM. The IC50 at PRMT5/MEP50 fell in the range of 101 to 1000 nM.

For the compound `O=C(NCC(O)CN1Cc2ccccc2C1)c1cccc(NC2CCOCC2)c1` (stereo not shown) [Compound 8], the concentration giving a half-maximal response (EC50) in assay [1] lay in the range of 101 to 1000 nM.

Turning to `CN1CCOc2cccc(OCC(=O)NC[C@H](O)CN3Cc4ccccc4C3)c21` [Compound 26], at PRMT5/MEP50, the concentration for half-maximal inhibition (IC50) is 101 to 1000 nM.

As for `C[C@@H](Oc1cccc2cccnc12)C(=O)NC[C@@H](O)CN1Cc2ccccc2C1` [Compound 3, (R)—N—((R)-2-hydroxy-3-(isoindolin-2-yl)propyl)-2-(quinolin-8-yloxy)propanamide], the concentration for half-maximal inhibition (IC50) on PRMT5/MEP50 lay within 1000 to 10000 nM.

As for `CN1CCOc2cccc(OCC(=O)NC[C@@H](O)CN3Cc4ccccc4C3)c21` [Compound 22], at PRMT5/MEP50, the IC50 was 101 to 1000 nM.
